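Each compound was tested at five concentrations against cells in 96-well plates for 48 hours. TGI is the concentration that stops growth completely.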

Test systems include HCT-116 colon; SF-539 CNS; HCC-2998 colon; NCI/ADR-RES ovarian; UO-31 renal; NCI-H460 lung; U251 CNS; PC-3 prostate; SN12C renal; HS 578T breast; M14 melanoma; IGROV1 ovarian; CCRF-CEM leukemia; A549 NSCLC; TK-10 renal; CAKI-1 renal; MOLT-4 leukemia; SK-MEL-28 melanoma; OVCAR-5 ovarian; A498 renal.
Common to all, as to assay: NCI-60 cell line screen, 48 h

On to `COc1ccc(/C=C2\CCc3cc(OC)c(OC)cc3C2=O)cc1`, for which the TGI in the assay with HCT-116 colon, in the assay on SF-539 CNS, in the assay on HCC-2998 colon, in the assay on NCI/ADR-RES ovarian, in the assay on UO-31 renal and with NCI-H460 lung was greater than 10 µM in each case. The TGI with U251 CNS, with PC-3 prostate, in the assay with SN12C renal, in the assay on HS 578T breast, in the assay with M14 melanoma and with IGROV1 ovarian was greater than 10 µM throughout. In addition, the TGI in the assay on CCRF-CEM leukemia, in the assay with A549 NSCLC, in the assay on TK-10 renal, in the assay on CAKI-1 renal, in the assay on MOLT-4 leukemia and in the assay with SK-MEL-28 melanoma was greater than 10 µM throughout. Besides, the TGI in the assay with OVCAR-5 ovarian was greater than 10 µM.

Regarding `O=c1oc2c/c(=C\c3ccccn3)c(=O)c3cccc1c3-2`, the TGI is greater than 100 µM with HCT-116 colon; 57.4 µM with SF-539 CNS; greater than 100 µM in the assay with HCC-2998 colon; greater than 100 µM with NCI/ADR-RES ovarian; greater than 100 µM with NCI-H460 lung; greater than 100 µM in the assay on PC-3 prostate. The TGI in the assay on SN12C renal, in the assay with HS 578T breast, in the assay with M14 melanoma, in the assay on IGROV1 ovarian, with CCRF-CEM leukemia and with TK-10 renal was greater than 100 µM each time. Moreover, the TGI in the assay on CAKI-1 renal, in the assay on MOLT-4 leukemia, in the assay on SK-MEL-28 melanoma and with OVCAR-5 ovarian was greater than 100 µM each time.

As for `CCOC(=O)C(NC(=O)c1cccc(Cl)c1)(N1CCN(c2cc3c(cc2F)c(=O)c(C(=O)O)cn3C2CC2)CC1)C(F)(F)F` (stereo unspecified), the TGI with HCT-116 colon came to 25.5 µM; in the assay with SF-539 CNS, 31.3 µM; in the assay with HCC-2998 colon, 34.8 µM; in the assay with UO-31 renal, 47.3 µM; in the assay on NCI-H460 lung it was 42.9 µM; in the assay on U251 CNS, 18.3 µM. Moreover, the TGI with PC-3 prostate came out at 34.6 µM; in the assay on SN12C renal, 93.9 µM; with HS 578T breast, 58 µM; with M14 melanoma it was 33.2 µM; with IGROV1 ovarian it was 41.5 µM; with CCRF-CEM leukemia, 9.78 µM. Also, the TGI in the assay with A549 NSCLC worked out at 50.5 µM; with A498 renal, 55.7 µM; in the assay with CAKI-1 renal, 36.2 µM; in the assay with MOLT-4 leukemia, 15.9 µM; in the assay on SK-MEL-28 melanoma, 32.4 µM; in the assay on OVCAR-5 ovarian it was 31.1 µM.

For the molecule `CC(C)(C)OC(=O)NC(CS(=O)(=O)O)C(=O)O` (stereo unspecified), the TGI with HCT-116 colon, in the assay on SF-539 CNS, in the assay with HCC-2998 colon, in the assay with NCI/ADR-RES ovarian, in the assay with UO-31 renal and in the assay with NCI-H460 lung was greater than 100 µM throughout. Besides, the TGI in the assay on U251 CNS, with PC-3 prostate, in the assay with SN12C renal, with M14 melanoma, with IGROV1 ovarian and with CCRF-CEM leukemia was greater than 100 µM in each case. Also, the TGI in the assay with A549 NSCLC, in the assay with A498 renal, with TK-10 renal, in the assay with CAKI-1 renal, in the assay on MOLT-4 leukemia and in the assay with SK-MEL-28 melanoma was greater than 100 µM throughout. Further, in the assay on OVCAR-5 ovarian, the TGI was greater than 100 µM.

Consider `COC(=O)c1ccc(/C=C2\Oc3cc(O)ccc3C2=O)cc1`, for which the TGI with HCT-116 colon, in the assay with SF-539 CNS, in the assay on HCC-2998 colon, in the assay on NCI/ADR-RES ovarian, with UO-31 renal and with NCI-H460 lung was greater than 100 µM each time. For the same molecule, the TGI in the assay on U251 CNS, in the assay with PC-3 prostate, in the assay on SN12C renal, with HS 578T breast, in the assay on M14 melanoma and with IGROV1 ovarian was greater than 100 µM throughout. Besides, the TGI with CCRF-CEM leukemia, in the assay on A549 NSCLC, with TK-10 renal, in the assay with CAKI-1 renal, in the assay on MOLT-4 leukemia and with SK-MEL-28 melanoma was greater than 100 µM each time.

With `Cc1cc2cc3ccccc3cc2c(=O)[nH]1`, the TGI in the assay with HCT-116 colon, in the assay on SF-539 CNS, in the assay on UO-31 renal, in the assay on NCI-H460 lung, in the assay with U251 CNS and in the assay on PC-3 prostate was greater than 10 µM in each case. The TGI with HS 578T breast, in the assay with M14 melanoma, in the assay on IGROV1 ovarian, in the assay with CCRF-CEM leukemia, in the assay on A549 NSCLC and with TK-10 renal was greater than 10 µM throughout. Besides, the TGI in the assay on MOLT-4 leukemia and in the assay on OVCAR-5 ovarian was greater than 10 µM throughout.

For `NS(=O)(=O)c1nnc(NS(=O)(=O)c2ccc(Cl)cc2)s1`, the TGI in the assay on HCT-116 colon, in the assay with HCC-2998 colon, with NCI/ADR-RES ovarian, in the assay on UO-31 renal, in the assay on NCI-H460 lung and in the assay with U251 CNS was greater than 100 µM each time. In addition, the TGI in the assay on SN12C renal, in the assay with HS 578T breast, in the assay on M14 melanoma, in the assay on A549 NSCLC, in the assay with A498 renal and with TK-10 renal was greater than 100 µM throughout. In addition, the TGI in the assay on CAKI-1 renal, in the assay with MOLT-4 leukemia, with SK-MEL-28 melanoma and in the assay on OVCAR-5 ovarian was greater than 100 µM in each case.

For `CCCCc1ccc(Nc2nc(Cl)c3ncn(C4CC(Oc5ccc(C)cc5)C(COc5ccc(C)cc5)O4)c3n2)cc1` (stereo unspecified), the TGI in the assay with HCT-116 colon, with SF-539 CNS, in the assay on HCC-2998 colon, in the assay on NCI/ADR-RES ovarian, in the assay with UO-31 renal and with SN12C renal was greater than 100 µM throughout. Moreover, the TGI in the assay with HS 578T breast, in the assay with M14 melanoma, with IGROV1 ovarian, in the assay on CCRF-CEM leukemia, with A549 NSCLC and in the assay on A498 renal was greater than 100 µM each time. Also, the TGI with TK-10 renal is greater than 100 µM; with CAKI-1 renal, 30.9 µM; in the assay on MOLT-4 leukemia, greater than 100 µM; in the assay with OVCAR-5 ovarian it was greater than 100 µM.

Source of the values: PubChem BioAssay (NCI).
